pKd: −log10 of the molar value. Entries after “also recorded” stand apart in the source; their conditions may differ.

One series concerns T1, FRA1:JUN.
T1 construct: endogenous in cells
Briefly: isPLA endogenous FRA1:JUN. To be noted: 10 μM. In kind it is cell-based, human. Here is the method: The isPLA assay has been described. Antibodies used are listed in Supplementary Information. Briefly, cells were grown on collagen-coated chamber slides (Falcon), and treated with 1–10 μM of compounds, respectively, for 16 hours, then washed twice with PBS and fixed in ice cold methanol for 5–15 min at room temperature. Slides were washed in PBS with 0.05% Tween 20 and incubated in blocking buffer after which isPLA was performed using the Duolink® in situ PLA kit (Sigma-Aldrich) according to the manufacturer’s protocol. DNA was stained with DAPI. Incubation with primary antibodies were performed at +4 °C overnight. Images were taken using an Axiovert 200M inverted microscope (Zeiss) and fluorescent dots were quantified using semi-automated analysis in ImageJ (http://imagej.net) and averaged to number of dots per cell.

The target in a further series is T2, MYCbHLHZip:MAXbHLHZip (Homo sapiens, UniProt P01106).
T2 construct: 6xHis (N); made in house; host or cells: E. coli BL21 (DE3), pET28a
T2 sequence (P01106 367-447 limits assumed): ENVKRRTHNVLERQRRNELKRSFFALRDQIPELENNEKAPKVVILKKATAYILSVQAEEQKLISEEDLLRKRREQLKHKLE
Briefly: MST MYC:MAX heterodimer formation assay. It is filed as binding. The following applies: for shift of MAX thermophoresis relative to DMSO (MYC:MAX MST): 50 µM compound, 1 µM MYCbHLHZip. An excerpt: We next investigated the capacity of the small molecule inhibitors to directly target the MYC:MAX interaction in vitro. Two biophysical interaction assays, microscale thermophoresis (MST)[44] and surface plasmon resonance (SPR)[45], were developed using recombinant MYC and MAX proteins (Suppl. Fig. S1C) (manuscript in prep.). MST is based on the shift of fluorescent molecules moving in a temperature gradient (thermophoresis), which can be perturbed by interactions. In the MST MYC:MAX interaction assay, fluorescently labeled MAXbHLHZip was combined with MYCbHLHZip pre-mixed with compound.
(§1) MST was carried out on a Monolith NT.115 with blue/green filters, kindly provided by Luca Jovine, Karolinska Institutet Huddinge, according to manufacturer’s protocol (NanoTemper). MYCbHLHZip, MAXbHLHZip, BSA and BCL-XL recombinant proteins and compounds were diluted and titrated in PBS supplemented with 0.05% Triton-X-114 or 0.05% Tween-20. Titration of molecules was carried out in 16 PCR tubes into which a fixed concentration of fluorescent molecule was added. The mixture was applied to capillaries (standard treated, NanoTemper), and scanned in the Monolith NT.115 to measure initial fluorescence of molecule. MST was induced and fluorescence was measured during 40 seconds. Double measurements were carried out (MST power of 20% and 40%, or 40% and 60%) for each sample. Delta fluorescence or relative fluorescence of fluorescent molecule normalized to control vehicle was plotted against titrated molecule concentration. The protein labeling kit GREEN-NHS (NanoTemper) was used to label primary amines of proteins according to manufacture’s protocol.

For a further series, the system named is MAX:MAX. The experiment in a line: MST MAX:MAX. It is filed as binding. To be noted: labeled MAX pre-mixed with 1 µM unlabeled MAX.
In the next series the target is MAX bHLHZip (Homo sapiens, UniProt P61244). The experiment in a line: MST direct binding to MAX. The following applies: 3 μM MYCMI-6, MAX titrated. Here is the method: To determine whether MYCMI-6 binds directly to MYC (or MAX), MST and SPR were applied. The bHLHZip domains of MYC or MAX, respectively (Suppl. Fig. S1C), were titrated and mixed with 3 μM of MYCMI-6.
MAX bHLHZip, sequence (P61244 23-102 limits assumed): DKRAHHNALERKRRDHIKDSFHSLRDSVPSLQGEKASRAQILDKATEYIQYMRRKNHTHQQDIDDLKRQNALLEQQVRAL
as §1

Series [1] has as its system MYCN-amplified neuroblastoma cells (IMR-32, Kelly, SK-N-DZ). The experiment in a line: Resazurin growth assay, MYCN-amplified neuroblastoma cell lines. It is filed as cell-based, human. To be noted: 48 hours; for growth of MYCN-amplified versus MYCN-non-amplified neuroblastoma cell lines: MYCMI-6 6.25 μM, MYCMI-11 and MYCMI-14 25 μM, 10058-F4 64 μM. The text has this:
HEK293A, MCF7, MDA-MB231, SK-N-F1, SK-N-RA, SK-N-AS, COS-7, HeLa, BJ cells, and Rat1 fibroblasts TGR-1 (wt), HO15.19 (MYC knockout) and HOmyc3 (MYC reconstituted HO15.19) were maintained in DMEM. The neuroblastoma cell lines Kelly, IMR-32 and SK-N-DZ, and the Burkitt’s lymphoma cell lines Mutu, Daudi and ST486 were kept in RPMI. SK-N-BE(2) cells were maintained in a 1:1 mixture of EMEM and F12 media, supplemented with 1% non-essential amino acid solution (NEAA) and 0.5% Glutamine. U2OS-MYC-ER cell lines were cultured in phenol-red free DMEM and treated with 100 nM 4-hydroxytamoxifen (HOT) (Sigma-Aldrich) to activate MYC-ER. IMR-90 was maintained in MEM. All media were supplemented with 10% FBS and 1% penicillin and streptomycin and kept at 37 °C and 5% CO2. All cell lines were mycoplasma free. Cell proliferation assays were performed as described in Supplementary Information. […]
(§2) Cell proliferation assays. Cell growth and viability was estimated in triplicates with WST-1
(§3) (Roche) or Resazurin sodium salt (Sigma-Aldrich) assays in medium at 37°C and 5% CO 2 for
(§4) 2 hours after which absorbance or fluorescence, respectively, was measured with an Omega
(§5) Fluostar (BMG Labtech) in a 96 well plate format. […]

Series [2] concerns TGR-1 (wt) Rat1 fibroblasts. Briefly: WST-1 growth assay, TGR-1 (wt) Rat1 fibroblasts. In kind it is cell-based, rat. Here is the method:
as §2, §3, §4, §5
0.7% agarose. […]
On the technique in general: Formazan colour is commonly taken as a measure of viable cells.

Series [3] relates to normal IMR-90 and BJ human fibroblasts. The experiment in a line: Viable/dead cell counting, normal fibroblasts. In kind it is cell-based. The following applies: 12.5 μM, 24 hours. Here is the method:
Triton-X-114 (Sigma). Truncated p53 core protein was a kind gift from Klas Wiman, CCK, […]
Cell proliferation assays. Cell growth and viability was estimated in triplicates with WST-1 (Roche) or Resazurin sodium salt (Sigma-Aldrich) assays in medium at 37°C and 5% CO 2 for 2 hours after which absorbance or fluorescence, respectively, was measured with an Omega Fluostar (BMG Labtech) in a 96 well plate format. Cell counting was done in 96 well plates with CellTracker Green (ThermoFisher) for 30 min in the incubator, after which DAPI was added for 5 min. Images were taken in the green (FITC) and blue (DAPI) channels using a fluorescence microscope (ImageXpress Micro, Molecular Devices). […] After 16 days, the colonies were stained with 100 µg/ml MTT (Sigma) overnight and colonies were counted.
Immunohistochemistry. Apoptosis was visualized at the single-cell level on tumor cryosections using the TUNEL method using the In Situ Cell Death Detection Fluorescein-Roche kit and analyzed by fluorescence microscopy. […] Cell proliferation and microvascular density (MVD) were evaluated through Ki67 and CD31staining, respectively, on tumor cryosections and detected by immunofluoresence. […] For quantification, areas with positive TUNEL and Ki67 staining were measured using Image J software. For the analysis of MVD, the number of vessel structures per microscopic field was calculated.

Series [4] addresses S-adenosylmethionine decarboxylase (AdoMetDC). More on the design: method as in PMID 17676832. To be noted: cited from earlier work.

A word on the GI50: it is the concentration giving 50% growth inhibition. Consider `CCOc1ccc2nc3cc(/N=N/c4ccc(N)nc4N)ccc3c(N)c2c1` [MYCMI-6], for which the “effect on FRA1:JUN interaction (isPLA)” value with FRA1:JUN is given as “did not significantly affect”. For the same molecule, the “shift of MAX thermophoresis relative to DMSO (MYC:MAX MST)” value on MYCbHLHZip:MAXbHLHZip was “shifted MAX thermophoresis”. In addition, the pKd on MYCbHLHZip:MAXbHLHZip (titration with 1 µM MYCbHLHZip and labeled MAXbHLHZip, read-out: Kd of thermophoresis shift, MYC:MAX MST) is 5.37. For the same molecule, in the series on MAX:MAX, the “effect on MAX:MAX (MST)” value was “minor effects; also recorded: did not inhibit MAX:MAX homodimerization”. Moreover, the “binding to MAX bHLHZip (MST)” value on MAX bHLHZip is “no obvious changes; also recorded: did not bind to MAX”. The molecule further gave a GI50 in series [1] (Homo sapiens, Neuroblastoma cell, resazurin) of 2.5 to 6 µM. Further, the “growth of MYCN-amplified versus MYCN-non-amplified neuroblastoma cell lines” value in series [1] is recorded as “reduced growth of the MYCN-amplified cell lines significantly stronger than the MYCN-non-amplified cell lines”. For the same molecule, the “growth of wt (TGR-1) cells” value in series [2] is on record as “strongly inhibited growth”. Moreover, in series [3], the “number of viable cells and percentage of dead cells, normal fibroblasts” value is “only marginal effects; also recorded: not cytotoxic”. For the same molecule, in series [4], the “IC50 for AdoMetDC relative to MYC:MAX in vitro” value is given as “approximately 10 fold”.
Consider `CCCCN(c1ccccc1)c1ncnc2c1cnn2C` [MYCMI-11], for which the “effect on FRA1:JUN interaction (isPLA)” value in the series on FRA1:JUN is “did not significantly affect”. In addition, on MYCbHLHZip:MAXbHLHZip, the “shift of MAX thermophoresis relative to DMSO (MYC:MAX MST)” value is “less effective”. Besides, the “growth of MYCN-amplified versus MYCN-non-amplified neuroblastoma cell lines” value in series [1] was “reduced growth of the MYCN-amplified cell lines significantly stronger than the MYCN-non-amplified cell lines”.
Take `O=C(O)/C=C/C(=O)Nc1cccc2c1-c1ccccc1C2=O` [MYCMI-14]: the “effect on FRA1:JUN interaction (isPLA)” value in the series with FRA1:JUN is recorded as “did not significantly affect”. On MYCbHLHZip:MAXbHLHZip, the “shift of MAX thermophoresis relative to DMSO (MYC:MAX MST)” value was “less effective”. Moreover, the “growth of MYCN-amplified versus MYCN-non-amplified neuroblastoma cell lines” value in series [1] is given as “reduced growth of the MYCN-amplified cell lines significantly stronger than the MYCN-non-amplified cell lines”.
